According to patent publication US20260159481A1, “INDOLE DERIVATIVE WITH SUBSTITUENT AND PHARMACEUTICAL USE” (MITOIMMUNE THERAPEUTICS INC., priority 2023, published 2026):

What was measured:
[1] = system: cardiac cells (H9C2); experiment: Protective effect against t-BHP-induced cell death in cardiac cells (LDH release); format: cell-based; conditions: Rattus norvegicus, t-BHP 400 PM, 2 hours, read-out: EC50, protective effect against cell death due to t-BHP induction
Method: To confirm a protective effect on cardiac cells, H9C2 cells were seeded at 1.5×10^4 cells/well in a 96-well plate and cultured for 24 hours. The example compounds were diluted to have the final concentration of 0.001, 0.01, 0.03, 0.1, 0.3, 1, 3, 10, and 30 PM, respectively, and then added to different wells, and the resulting cells were cultured for 15 to 20 minutes. Tert-butyl hydroperoxide (t-BHP) was treated to have the final concentration of 400 PM, and the resulting cells were cultured for 2 hours. To confirm the cell death protection effect of each compound, the degree of extracellular secretion of lactate dehydrogenase (LDH) was measured using a cytotoxicity LDH assay kit [Dojindo; CK12]. Briefly, after 2 hours of t-BHP treatment on the cells, 70 μL of the supernatant was taken from the 96-well plate where the cells were cultured and transferred to a new 96-well plate. The assay buffer included in the kit was added at 70 μL/well (equal to that of the sample) and the plate was covered with foil to block light and allowed to react for 15 minutes at room temperature. While observing a color change of each sample, 35 μL/well of a stop solution was added, an absorbance at 490 nm was measured using an iD3 spectrophotometer, and an EC50 value was calculated.

[2] = system: cardiac cells (H9C2); experiment: Protective effect against cell death due to RSL3 (LDH release), H9C2; format: cell-based; conditions: Rattus norvegicus, RSL3 0.5 μM, 24 hours
Method: (§1) To confirm cell death protection effects on cardiac cells, adrenal medullary cells, renal fibroblasts, retinal epithelial cells, lung epithelial cells, renal proximal tubular epithelial cells, hippocampal neurons and fibroblasts, each type of cells were seeded at 4×10^3 to 1.2×10^4 cells/well in a 96-well plate and cultured for 18 to 24 hours. The example compounds were diluted to have the final concentration of 0.001, 0.003, 0.01, 0.3, 1, 3, and 10 μM, respectively, and then added to different wells and cultured for 15 to 20 minutes. […] To confirm the cell death protection effect of the example compounds, the degree of extracellular secretion of lactate dehydrogenase (LDH) was measured using a cytotoxicity LDH assay kit [Dojindo; CK12]. Briefly, at the end of 24-hour treatment of each type of cells with RSL3, 70 μL of the supernatant was taken from the 96-well plate where the cells were cultured and transferred to a new 96-well plate. The assay buffer included in the kit was added at 70 μL/well (equal to that of the sample) and the plate was covered with foil to block light and allowed to react for 15 to 20 minutes at room temperature. While observing a color change of the sample, 35 µL/well of a stop solution was added, an absorbance at 490 nm was measured using an iD3 spectrophotometer, and an EC50 value was calculated.

[3] = system: renal fibroblasts (NRK-49F); experiment: Protective effect against cell death due to RSL3 (LDH release), NRK-49F; format: cell-based; conditions: Rattus norvegicus, RSL3 3 μM, 24 hours
Method: as §1

[4] = system: lung epithelial cells (MLE-12); experiment: Protective effect against cell death due to RSL3 (LDH release), MLE-12; format: cell-based; conditions: MLE12, RSL3 1 μM, 24 hours
Method: as §1

[5] = system: retinal epithelial cells (ARPE-19); experiment: Protective effect against cell death due to RSL3 (LDH release), ARPE-19; format: cell-based; conditions: Homo sapiens, RSL3 0.3 μM, 24 hours
Method: as §1

[6] = system: adrenal medullary cells (PC-12); experiment: Protective effect against cell death due to RSL3 (LDH release), PC-12; format: cell-based; conditions: Rattus norvegicus, RSL3 0.3 μM, 24 hours
Method: as §1

[7] = system: renal proximal tubular epithelial cells (HK2); experiment: Protective effect against cell death due to RSL3 (LDH release), HK2; format: cell-based; conditions: Epithelial cell, RSL3 0.3 μM, 24 hours
Method: as §1

[8] = system: hippocampal neurons (HT-22); experiment: Protective effect against cell death due to RSL3 (LDH release), HT-22; format: cell-based; conditions: Mus musculus, RSL3 0.3 μM, 24 hours
Method: as §1

[9] = system: fibroblasts (NIH/3T3); experiment: Protective effect against cell death due to RSL3 (LDH release), NIH/3T3; format: cell-based; conditions: Mus musculus, NIH3T3, RSL3 3 μM, 24 hours
Method: as §1

[10] = Pharmacokinetics in plasma after oral administration to ICR mice; format: in vivo; conditions: oral 10 mg/kg
Method: Pharmacokinetic parameters may include the maximum plasma concentration (Cmax), the time to reach the maximum plasma concentration (Tmax), the area under the plasma concentration-time curve (AUCinf), and a half-life (t1/2).
Example Compound 27 was orally administered to ICR mice at a dose of 10 mg/kg. Drug concentrations in the plasma of mice were measured by HPLC-MS/MS spectroscopy 0.5, 1, 2, 4, 8, or 24 hours after administration.
The comparative example compound was orally administered to ICR mice at a dose of 10 mg/kg. The drug concentrations in the plasma of the mice were measured by HPLC-MS/MS 0.5, 1, 2, 4, 8, or 24 hours after administration.

- Cmax ([10]; mouse, plasma): 4440 ng/mL
- Tmax ([10]; mouse, plasma): 1 h
- half-life ([10]; mouse, plasma): 2.83 h
- AUC(0-inf) ([10]; mouse, plasma, read-out: area under the plasma concentration-time curve (AUCinf)): 25100 ng·h/mL
- concentration at 0.5 h ([10]; mouse, plasma, 0.5 hr): 3830 ng/mL
- concentration at 1 h ([10]; mouse, plasma, 1 hr): 4440 ng/mL
- concentration at 2 h ([10]; mouse, plasma, 2 hr): 3780 ng/mL
- concentration at 4 h ([10]; mouse, plasma, 4 hr): 2800 ng/mL
- concentration at 8 h ([10]; mouse, plasma, 8 hr): 1080 ng/mL
- concentration at 24 h ([10]; mouse, plasma, 24 hr): 1 ng/mL
- exposure (AUCinf) relative to the comparative example compound [10]: approximately 5 times
- half-life relative to the comparative example compound [10]: approximately 2 times
- maximum plasma concentration (Cmax) relative to the comparative example compound [10]: approximately 2 times
- AUCinf ([10]; plasma): 25,115 ng · hr/mL
SMILES: OCCOCc1cc(NC2CCOCC2)c2[nH]c(-c3ccccc3)cc2c1 [Example 27, 2-((2-phenyl-7-((tetrahydro-2H-pyran-4-yl)amino)-1H-indol-5-yl)methoxy)ethan-1-ol]
- EC50 [1]: ≤ 300 nM
- EC50 [2]: ≤ 100 nM
- EC50 [3]: ≤ 100 nM
- EC50 [4]: 100 to 1000 nM
- EC50 [5]: ≤ 100 nM
- EC50 [6]: ≤ 100 nM
- EC50 [7]: ≤ 100 nM
- EC50 [8]: ≤ 100 nM
- EC50 [9]: ≤ 100 nM
